Tests used:
[1] = tested on: Plasmodium falciparum 3D7; test: P. falciparum growth inhibition assay (Pf-LDH); assay type: cell-based; conditions: Plasmodium falciparum
Method in brief: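 P. falciparum 3D7 (chloroquine-sensitive) at 0.25% parasitemia and 2% hematocrit was incubated with compound for 72 h at 37° C under 4% CO2/3% O2/93% N2. After freeze-thaw, PfLDH activity was read at 650 nm with lactate/APAD/NBT/diaphorase mix (pH 8.0).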

[2] = molecular target: T1, human HDAC1 (Homo sapiens, UniProt Q13547); test: Homo sapiens HDAC1 inhibition assay (Fluor-de-Lys, enzymatic); assay type: biochemical; conditions: human HDAC enzymatic assay; read-out: hHDAC IC50
T1 construct: made in house; host or cells: HeLa (ATCC CCL-2), mammalian cells
T1 sequence (Q13547 whole entry): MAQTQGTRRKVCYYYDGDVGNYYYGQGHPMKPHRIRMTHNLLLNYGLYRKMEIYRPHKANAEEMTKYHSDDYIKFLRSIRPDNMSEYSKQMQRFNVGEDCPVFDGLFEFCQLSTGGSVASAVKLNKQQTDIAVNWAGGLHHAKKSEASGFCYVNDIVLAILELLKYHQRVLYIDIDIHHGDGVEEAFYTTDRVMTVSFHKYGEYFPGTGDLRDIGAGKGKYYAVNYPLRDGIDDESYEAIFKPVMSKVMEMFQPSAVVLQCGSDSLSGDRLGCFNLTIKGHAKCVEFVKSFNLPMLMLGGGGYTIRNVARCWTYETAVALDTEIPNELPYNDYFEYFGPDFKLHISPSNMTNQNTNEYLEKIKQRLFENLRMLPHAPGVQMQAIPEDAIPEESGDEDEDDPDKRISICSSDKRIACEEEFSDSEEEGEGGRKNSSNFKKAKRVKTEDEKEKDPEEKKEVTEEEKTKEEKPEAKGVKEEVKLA
Method in brief: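 Product developed with trypsin developer containing 2 μM TSA to stop the reaction; fluorescence measures deacetylase activity, inversely related to inhibition.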

[3] = Erythrocyte, P. falciparum 3D7 infected erythrocytes, 72 h incubation, PfLDH readout

In the case of `CNC(=O)CCCCC[C@H](NC(=O)c1ccns1)c1ncc(-c2ccc(-c3ccn(C)n3)cc2)[nH]1` [Entry 16, (S)-N-(1-(5-(4-(1-methyl-1H-pyrazol-3-yl)phenyl)-1H-imidazol-2-yl)-7-(methylamino)-7-oxoheptyl)isothiazole-5-carboxamide], the EC50 [1, 3] is reported as less than 1000 nM and the IC50 [2] is reported as 1000 to 5000 nM.
`CNC(=O)CCCCC[C@H](NC(=O)C1CCN(C)CC1)c1ncc(-c2ccc(-n3cccn3)cc2)[nH]1` [Entry 162] showed an EC50 [1, 3] greater than 5000 nM and an IC50 [2] greater than 5000 nM.
`CNC(=O)CCCCC[C@H](NC(=O)c1cncs1)c1ncc(-c2cc3ccccc3cc2OC)[nH]1` [Entry 97, (S)-N-(1-(5-(3-methoxynaphthalen-2-yl)-1H-imidazol-2-yl)-7-(methylamino)-7-oxoheptyl)thiazole-5-carboxamide] gave an EC50 [1, 3] of less than 1000 nM and an IC50 [2] of less than 1000 nM.
`CNC(=O)CCCCC[C@H](NC(=O)c1cc(C)n(C)n1)c1ncc(-c2ccc(-c3ccn(C)n3)cc2)[nH]1` [Entry 216, (S)-1,5-dimethyl-N-(1-(5-(4-(1-methyl-1H-pyrazol-3-yl)phenyl)-1H-imidazol-2-yl)-7-(methylamino)-7-oxoheptyl)-1H-pyrazole-3-carboxamide] was tested, and the EC50 [1, 3] was 1000 to 5000 nM and the IC50 [2] was greater than 5000 nM.
With `CNC(=O)CCCCC[C@H](NC(=O)c1ccnc2c1CCCN2)c1ncc(-c2ccc3ccccc3c2)[nH]1` [Entry 2, (S)-N-(7-(methylamino)-1-(5-(naphthalen-2-yl)-1H-imidazol-2-yl)-7-oxoheptyl)-5,6,7,8-tetrahydro-1,8-naphthyridine-4-carboxamide] the EC50 [1, 3] was 1000 to 5000 nM and the IC50 [2] was 1000 to 5000 nM.
In the case of `CNC(=O)CCCCC[C@H](NC(=O)c1cnsc1)c1ncc(-c2ccc(-c3ccn(C)n3)cc2)o1` [Entry 226, (S)-N-(1-(5-(4-(1-methyl-1H-pyrazol-3-yl)phenyl)oxazol-2-yl)-7-(methylamino)-7-oxoheptyl)isothiazole-4-carboxamide], the EC50 [1, 3] is reported as 1000 to 5000 nM and the IC50 [2] is reported as greater than 5000 nM.
Work on `CNC(=O)CCCCC[C@H](NC(=O)C1CC(=O)Nc2ccccc21)c1ncc(-c2ccc(-n3cccn3)cc2)[nH]1` (stereo partly drawn) [Entry 61, N-((S)-1-(5-(4-(1H-pyrazol-1-yl)phenyl)-1H-imidazol-2-yl)-7-(methylamino)-7-oxoheptyl)-2-oxo-1,2,3,4-tetrahydroquinoline-4-carboxamide] yielded an EC50 [1, 3] of 1000 to 5000 nM and an IC50 [2] of 1000 to 5000 nM.
Compound `CNC(=O)CCCCC[C@H](NC(=O)c1ccc2cnccc2c1)c1ncc(-c2ccc3ccccc3c2)[nH]1` [Entry 114, (S)-N-(7-(methylamino)-1-(5-(naphthalen-2-yl)-1H-imidazol-2-yl)-7-oxo-heptyl)isoquinoline-6-carboxamide] has an EC50 [1, 3] of 1000 to 5000 nM and an IC50 [2] of 1000 to 5000 nM.
Compound `CNC(=O)CCCCC[C@H](NC(=O)C1CNC(=O)C1)c1ncc(-c2ccc3ccccc3c2)[nH]1` (stereo partly drawn) [Entry 166, N-((S)-7-(methylamino)-1-(5-(naphthalen-2-yl)-1H-imidazol-2-yl)-7-oxoheptyl)-5-oxopyrrolidine-3-carboxamide] has an EC50 [1, 3] of 1000 to 5000 nM and an IC50 [2] of 1000 to 5000 nM.
Compound `CNC(=O)CCCCC[C@H](NC(=O)CCN1CCOCC1)c1ncc(-c2cc3ccccc3nc2OC)[nH]1` [Entry 130] has an EC50 [1, 3] of 1000 to 5000 nM and an IC50 [2] greater than 5000 nM.
Work on `CNC(=O)CCCCC[C@H](NC(=O)c1cnc(CN2CCCC2)s1)c1ncc(-c2ccc(-n3cccn3)cc2)[nH]1` [Entry 141, (S)-N-(1-(5-(4-(1H-pyrazol-1-yl)phenyl)-1H-imidazol-2-yl)-7-(methylamino)-7-oxoheptyl)-2-(pyrrolidin-1-ylmethyl)thiazole-5-carboxamide] yielded an EC50 [1, 3] of 1000 to 5000 nM and an IC50 [2] of 1000 to 5000 nM.
`CNC(=O)CCCCC[C@H](NC(=O)c1cncs1)c1ncc(-c2ccc3nc(OC)ccc3c2)[nH]1` [Entry 107, (S)-N-(1-(5-(2-methoxyquinolin-6-yl)-1H-imidazol-2-yl)-7-(methylamino)-7-oxoheptyl)thiazole-5-carboxamide] gave an EC50 [1, 3] of less than 1000 nM and an IC50 [2] of less than 1000 nM.
`CNC(=O)CCCCC[C@H](NC(=O)c1cnn(C)c1)c1ncc(-c2ccc(-c3ccn(C)n3)cc2)o1` [Entry 224, (S)-1-methyl-N-(1-(5-(4-(1-methyl-1H-pyrazol-3-yl)phenyl)oxazol-2-yl)-7-(methylamino)-7-oxoheptyl)-1H-pyrazole-4-carboxamide] gave an EC50 [1, 3] of 1000 to 5000 nM and an IC50 [2] greater than 5000 nM.
`CNC(=O)CCCCC[C@H](NC(=O)C1CC1c1ccncc1)c1ncc(-c2ccc3ccncc3c2)[nH]1` (stereo partly drawn) [Entry 48, N-((S)-1-(5-(isoquinolin-7-yl)-1H-imidazol-2-yl)-7-(methylamino)-7-oxoheptyl)-2-(pyridin-4-yl)cyclopropane-carboxamide] showed an EC50 [1, 3] of 1000 to 5000 nM and an IC50 [2] of 1000 to 5000 nM.
In the case of `CNC(=O)CCCCC[C@H](NC(=O)c1cnsc1)c1ncc(-c2ccc3ccncc3c2)[nH]1` [Entry 46, (S)-N-(1-(5-(isoquinolin-7-yl)-1H-imidazol-2-yl)-7-(methylamino)-7-oxo-heptyl)isothiazole-4-carboxamide], the EC50 [1, 3] is reported as less than 1000 nM and the IC50 [2] is reported as less than 1000 nM.
Work on `CNC(=O)CCCCC[C@H](NC(=O)C12CCN(CC1)CC2)c1ncc(-c2ccc3ccccc3c2)[nH]1` [compound 126, (S)-N-(7-(methylamino)-1-(5-(naphthalen-2-yl)-1H-imidazol-2-yl)-7-oxo-heptyl)quinuclidine-4-carboxamide] yielded an EC50 [1, 3] of less than 1000 nM, an EC50 ([1]; P. falciparum 3D7, n=11) of 293 nM and an IC50 [2] of less than 1000 nM.
`CNC(=O)CCCCC[C@H](NC(=O)c1cncs1)c1ncc(-c2ccc3cc(C(F)(F)F)ncc3c2)[nH]1` [Entry 190] was tested, and the EC50 [1, 3] was less than 1000 nM and the IC50 [2] was less than 1000 nM.
Work on `CNC(=O)CCCCC[C@H](NC(=O)Cc1cnccn1)c1ncc(-c2ccc3ccccc3c2)[nH]1` [Entry 113] yielded an EC50 [1, 3] of 1000 to 5000 nM and an IC50 [2] of 1000 to 5000 nM.
`CNC(=O)CCCCC[C@H](NC(=O)c1ccn(C(F)F)n1)c1ncc(-c2ccc(-c3ccn(C)n3)cc2)[nH]1` [Entry 214, (S)-1-(difluoromethyl)-N-(1-(5-(4-(1-methyl-1H-pyrazol-3-yl)phenyl)-1H-imidazol-2-yl)-7-(methylamino)-7-oxoheptyl)-1H-pyrazole-3-carboxamide] was tested, and the EC50 [1, 3] was 1000 to 5000 nM and the IC50 [2] was greater than 5000 nM.
With `CNC(=O)CCCCC[C@H](NC(=O)c1cncs1)c1ncc(-c2ccc(CN)cc2)[nH]1` [Entry 60, (S)-N-(1-(5-(4-(amino-methyl)phenyl)-1H-imidazol-2-yl)-7-(methylamino)-7-oxoheptyl)thiazole-5-carboxamide] the EC50 [1, 3] was greater than 5000 nM and the IC50 [2] was 1000 to 5000 nM.
Compound `CNC(=O)CCCCC[C@H](NC(=O)c1cccnc1)c1ncc(-c2ccc3ccccc3c2)[nH]1` [Entry 175, (S)-N-(7-(methylamino)-1-(5-(naphthalen-2-yl)-1H-imidazol-2-yl)-7-oxo-heptyl)nicotinamide] has an EC50 [1, 3] of less than 1000 nM and an IC50 [2] of less than 1000 nM.
Compound `CNC(=O)CCCCC[C@H](NC(=O)c1cncs1)c1ncc(-c2ccc(-n3nc(C)cc3C)cc2)[nH]1` [Entry 81, (S)-N-(1-(5-(4-(3,5-dimethyl-1H-pyrazol-1-yl)phenyl)-1H-imidazol-2-yl)-7-(methylamino)-7-oxoheptyl)thiazole-5-carboxamide] has an EC50 [1, 3] greater than 5000 nM and an IC50 [2] greater than 5000 nM.
Compound `CNC(=O)CCCCC[C@H](NC(=O)c1cncs1)c1ncc(-c2ccc3cc(OC)cnc3c2)[nH]1` [Entry 14] has an EC50 [1, 3] of 1000 to 5000 nM and an IC50 [2] of 1000 to 5000 nM.
With `CNC(=O)CCCCC[C@H](NC(=O)c1cc(C)nn1C)c1ncc(-c2ccc(-c3ccn(C)n3)cc2)[nH]1` [Entry 215, (S)-1,3-dimethyl-N-(1-(5-(4-(1-methyl-1H-pyrazol-3-yl)phenyl)-1H-imidazol-2-yl)-7-(methylamino)-7-oxoheptyl)-1H-pyrazole-5-carboxamide] the EC50 [1, 3] was 1000 to 5000 nM and the IC50 [2] was greater than 5000 nM.
In the case of `CNC(=O)CCCCC[C@H](NC(=O)c1cncs1)c1ncc(-c2ccc(C#N)cc2)[nH]1` [Entry 52, (S)-N-(1-(5-(4-cyanophenyl)-1H-imidazol-2-yl)-7-(methylamino)-7-oxoheptyl)thiazole-5-carboxamide], the EC50 [1, 3] is reported as greater than 5000 nM and the IC50 [2] is reported as 1000 to 5000 nM.
`CNC(=O)CCCCC[C@H](NC(=O)c1cnc(C)s1)c1ncc(-c2ccc(-c3ccn(C)n3)cc2)[nH]1` [Entry 17, (S)-2-methyl-N-(1-(5-(4-(1-methyl-1H-pyrazol-3-yl)phenyl)-1H-imidazol-2-yl)-7-(methylamino)-7-oxoheptyl)thiazole-5-carboxamide] gave an EC50 [1, 3] of less than 1000 nM and an IC50 [2] of 1000 to 5000 nM.
`CNC(=O)CCCCC[C@H](NC(=O)Cc1cnc2ncnn2c1)c1ncc(-c2ccc3ccccc3c2)[nH]1` [Entry 22, (S)-7-(2-([1,2,4]triazolo[1,5-a]pyrimidin-6-yl)acetamido)-N-methyl-7-(5-(naphthalen-2-yl)-1H-imidazol-2-yl)heptanamide] gave an EC50 [1, 3] of less than 1000 nM and an IC50 [2] of less than 1000 nM.
`CNC(=O)CCCCC[C@H](NC(=O)Cn1ccnn1)c1ncc(-c2ccc(-c3ccn(C)n3)cc2)[nH]1` [Entry 69, (S)-7-(2-(1H-1,2,3-triazol-1-yl)acetamido)-N-methyl-7-(5-(4-(1-methyl-1H-pyrazol-3-yl)phenyl)-1H-imidazol-2-yl)heptanamide] was tested, and the EC50 [1, 3] was greater than 5000 nM and the IC50 [2] was greater than 5000 nM.
With `CNC(=O)CCCCC[C@H](NC(=O)c1cncs1)c1ncc(-c2cc3ccccc3nc2Cl)[nH]1` [Entry 80, (S)-N-(1-(5-(2-chloroquinolin-3-yl)-1H-imidazol-2-yl)-7-(methylamino)-7-oxoheptyl)thiazole-5-carboxamide] the EC50 [1, 3] was 1000 to 5000 nM and the IC50 [2] was 1000 to 5000 nM.
Compound `CNC(=O)CCCCC[C@H](NC(=O)c1cnn(C(C)C)c1)c1ncc(-c2ccc3ccncc3c2)[nH]1` [Entry 90, (S)-1-isopropyl-N-(1-(5-(isoquinolin-7-yl)-1H-imidazol-2-yl)-7-(methylamino)-7-oxoheptyl)-1H-pyrazole-4-carboxamide] has an EC50 [1, 3] of less than 1000 nM and an IC50 [2] of less than 1000 nM.
With `CNC(=O)CCCCC[C@H](NC(=O)c1cncs1)c1ncc(-c2ccc(CN(C)C)cc2)[nH]1` [Entry 78, (S)-N-(1-(5-(4-((dimethyl-amino)methyl)phenyl)-1H-imidazol-2-yl)-7-(methylamino)-7-oxoheptyl)thiazole-5-carboxamide] the EC50 [1, 3] was greater than 5000 nM and the IC50 [2] was 1000 to 5000 nM.

From US9365541B2, “Compounds for use in the treatment of parasitic diseases” (IRBM—SCIENCE PARK S.P.A., priority 2012, dated 2016)
